Test [1] concerns BRCA-mutated Capan-1 cell line. The test is described as follows: In vitro cell proliferation inhibition (CTG). It is filed as cell-based, human. As to conditions: for IC50: Homo sapiens, CAPAN-1, Capan-1, 3 h treatment, 72 h. The text has this: (§1) The applicant specially studied in vitro cell proliferation inhibition of Capan-1 and BxPc-3 cell lines by the hypoxia-activated anti-cancer prodrugs TH-302 and tirapazamine under normoxia and hypoxia. The Capan-1 cell line was a BRCA-mutated cell line, and the BxPc-3 cell line was a BRCA wild-type (i.e., non-BRCA-mutated) cell line. This experiment was intended to verify the difference of the hypoxia-activated anti-cancer prodrugs, TH-302 and tirapazamine, in sensitivity to BRCA mutations.
(§2) • 1) Capan-1/BxPc-3 cell suspensions were added to two types of 24-well plates, 495 μL each well. Density of the cells was 6×10^4 per well. 24-well plates with glass inserts were used in hypoxic tests, and ordinary plastic 24-well plates were used in normoxic tests. • 2) The cells were incubated overnight in an incubator at 37° C. in 5% CO2. • 3) Compound Processing
(§3) A hypoxia workstation was tuned to create a hypoxic environment (O2<0.01%), and an oxygen indicator was used to confirm the hypoxia in the workstation.
(§4) 24 hours after cell seeding, the 24-well plates with glass inserts were transferred into the hypoxia workstation.
(§5) The 24-well plates were placed on vortex shakers, uncovered and shaken to allow air exchange for 5 minutes.
(§6) To each well in a monotherapy group, a 100× test compound solution was added.
(§7) 24 hours after cell seeding, 5 μL of the 100× test compound solution was added to each well. Three replicate wells were set up for each test group.

For test [2], the system named is BRCA wild-type BxPc-3 cell line. Description: In vitro cell proliferation inhibition (CTG). The test is classed as cell-based. Conditions: for IC50: Homo sapiens, BXPC-3, BxPc-3, 3 h treatment, 72 h.
From the text: as §1, §2, §3, §4, §5, §6, §7

For orientation: IC50 means the concentration that inhibits the measured activity by half. A higher IC50 goes with a need for much substance. As to `Nc1n[n+]([O-])c2ccccc2[n+]1[O-]` [tirapazamine, reference compound], the “Ratio (21% O2/0.01% O2)” value in test [1] (Capan-1) was more than 68.82; in test [2] (BxPc-3) it was more than 60.19. In addition, the IC50 in test [1] (21% O2) was more than 2000 µM; in test [1] (<0.01% O2), 29.1 µM; in test [2] (21% O2), more than 2000 µM; in test [2] (<0.01% O2), 33.2 µM.

The record behind these values is patent publication US20250387419A1, “PARP INHIBITOR-RESISTANT PATIENT TREATED WITH TH-302” (ASCENTAWITS PHARMACEUTICALS, LTD., priority 2021, published 2025).
